How the values were obtained:
Conditions in all cases: 48 h
NOMO1 [1] = assay: cell viability relative to DMSO control; higher = less cytotoxic
In short: (§1)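 Viability was expressed as a per-plate percentage of DMSO wells, with cell-free wells as background. Leukemia cells (NOMO1 or SEM at 500 cells/well, P12-Ichikawa at 1000 cells/well) were adapted for at least four passages in each medium and seeded in 1536-well plates (5 μl). Library compounds in DMSO were pin-dosed over an 11-point threefold series from 47 μM to 0.79 nM, and CellTiter-Glo One luminescence was read after 48 h at 37°C.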

P12-Ichikawa [2] = assay: as above
In short: as §1

SEM cells [3] = assay: as above
In short: as §1

NOMO1 [4] = assay: AUC of viability dose-response curve (% viability x log10 dose units); higher = less sensitive
In short: (§2)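 Library compounds in DMSO were applied for 48 h at 37°C at 11 threefold doses (47 μM to 0.79 nM) to medium-adapted leukemia cells in 1536-well plates holding 500 or 1000 cells/well. Luminescence from CellTiter-Glo One was normalised plate by plate against DMSO and cell-free wells. Area under the curve came from trapezoidal integration of a log-logistic fit, after scaling curves that rose above full viability and discarding those that failed quality control. The fit had four parameters and used log10 doses.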

P12-Ichikawa [5] = assay: as above
In short: as §2

SEM cells [6] = assay: as above
In short: as §2

O=C(Nc1ccc([N+](=O)[O-])cc1Cl)c1cc(Cl)ccc1O
cell viability [%]
Conditions | NOMO1 [1] | P12-Ichikawa [2] | SEM cells [3]
HPLM + 10% dialyzed FBS, 0.000781 µM | 103 | 95.3 | 84.5
HPLM + 10% dialyzed FBS, 0.00234 µM | 94.9 | 105 | 98.7
HPLM + 10% dialyzed FBS, 0.00702 µM | 99.2 | 98.6 | 93.1
HPLM + 10% dialyzed FBS, 0.0211 µM | 107 | 102 | 98.2
HPLM + 10% dialyzed FBS, 0.0632 µM | 98.7 | 107 | 99.7
HPLM + 10% dialyzed FBS, 0.19 µM | 120 | 106 | 97.6
HPLM + 10% dialyzed FBS, 0.569 µM | 111 | 105 | 104
HPLM + 10% dialyzed FBS, 1.71 µM | 57.4 | 88 | 43.3
HPLM + 10% dialyzed FBS, 5.12 µM | 30 | 46 | 24.2
HPLM + 10% dialyzed FBS, 15.4 µM | 40.3 | 12.9 | 64.1
HPLM + 10% dialyzed FBS, 46.1 µM | 31.7 | 24.7 | 33.9
RPMI 5 mM glucose + 10% FBS, 0.000781 µM | 85.1 | 92.2 | 75
RPMI 5 mM glucose + 10% FBS, 0.00234 µM | 86.4 | 90.9 | 89.7
RPMI 5 mM glucose + 10% FBS, 0.00702 µM | 84.1 | 96 | 96.8
RPMI 5 mM glucose + 10% FBS, 0.0211 µM | 93 | 92.9 | 101
RPMI 5 mM glucose + 10% FBS, 0.0632 µM | 94.5 | 104 | 101
RPMI 5 mM glucose + 10% FBS, 0.19 µM | 89.1 | 106 | 105
RPMI 5 mM glucose + 10% FBS, 0.569 µM | 82.7 | 102 | 117
RPMI 5 mM glucose + 10% FBS, 1.71 µM | 62.3 | 71.6 | 22.1
RPMI 5 mM glucose + 10% FBS, 5.12 µM | 32.5 | 33 | 19.7
RPMI 5 mM glucose + 10% FBS, 15.4 µM | 72.8 | 17 | 3.97
RPMI 5 mM glucose + 10% FBS, 46.1 µM | 48.7 | 26.3 | 32.3
RPMI 5 mM glucose + 10% dialyzed FBS, 0.000781 µM | 88.8 | 81.5 | 96.9
RPMI 5 mM glucose + 10% dialyzed FBS, 0.00234 µM | 94.3 | 92.7 | 85.7
RPMI 5 mM glucose + 10% dialyzed FBS, 0.00702 µM | 91.3 | 81.4 | 88.8
RPMI 5 mM glucose + 10% dialyzed FBS, 0.0211 µM | 90.9 | 91.9 | 103
RPMI 5 mM glucose + 10% dialyzed FBS, 0.0632 µM | 103 | 87.2 | 96.7
RPMI 5 mM glucose + 10% dialyzed FBS, 0.19 µM | 96.4 | 88 | 99.2
RPMI 5 mM glucose + 10% dialyzed FBS, 0.569 µM | 101 | 94.2 | 123
RPMI 5 mM glucose + 10% dialyzed FBS, 1.71 µM | 50.8 | 69 | 19.6
RPMI 5 mM glucose + 10% dialyzed FBS, 5.12 µM | 34.6 | 31.4 | 17.1
RPMI 5 mM glucose + 10% dialyzed FBS, 15.4 µM | 50.9 | 32.1 | 66.3
RPMI 5 mM glucose + 10% dialyzed FBS, 46.1 µM | 47.9 | 5.22 | 47

AUC of viability dose-response curve
Conditions | NOMO1 [4] | P12-Ichikawa [5] | SEM cells [6]
HPLM + 10% dialyzed FBS | 375 | 386 | 369
RPMI 5 mM glucose + 10% FBS | 363 | 368 | 336
RPMI 5 mM glucose + 10% dialyzed FBS | 372 | 335 | 370

CC(C)(C)Cn1c(N)nc2ccc(-c3[nH]c(C(C)(C)C)nc3-c3ccc(F)cc3)nc21
cell viability [%]
Conditions | NOMO1 [1] | P12-Ichikawa [2] | SEM cells [3]
HPLM + 10% dialyzed FBS, 0.000781 µM | 84.9 | 92.1 | 97.1
HPLM + 10% dialyzed FBS, 0.00234 µM | 84.6 | 96.3 | 94.9
HPLM + 10% dialyzed FBS, 0.00702 µM | 79.9 | 92.3 | 84.7
HPLM + 10% dialyzed FBS, 0.0211 µM | 78.4 | 96 | 87.8
HPLM + 10% dialyzed FBS, 0.0632 µM | 90.8 | 87.2 | 91.5
HPLM + 10% dialyzed FBS, 0.19 µM | 81 | 78.7 | 82.2
HPLM + 10% dialyzed FBS, 0.569 µM | 83.6 | 90.1 | 85.2
HPLM + 10% dialyzed FBS, 1.71 µM | 64.3 | 78.9 | 79.1
HPLM + 10% dialyzed FBS, 5.12 µM | 75.3 | 91.5 | 84.5
HPLM + 10% dialyzed FBS, 15.4 µM | 64.7 | 85.3 | 77.6
HPLM + 10% dialyzed FBS, 46.1 µM | 49.6 | 85.4 | 73.5
RPMI 5 mM glucose + 10% FBS, 0.000781 µM | 84.3 | 95.4 | 123
RPMI 5 mM glucose + 10% FBS, 0.00234 µM | 88.4 | 83.8 | 111
RPMI 5 mM glucose + 10% FBS, 0.00702 µM | 76.3 | 78.3 | 108
RPMI 5 mM glucose + 10% FBS, 0.0211 µM | 75.9 | 90.6 | 157
RPMI 5 mM glucose + 10% FBS, 0.0632 µM | 90.8 | 86.4 | 146
RPMI 5 mM glucose + 10% FBS, 0.19 µM | 79.9 | 94.1 | 78.1
RPMI 5 mM glucose + 10% FBS, 0.569 µM | 82.9 | 83 | 54.1
RPMI 5 mM glucose + 10% FBS, 1.71 µM | 87.2 | 81.2 | 88.5
RPMI 5 mM glucose + 10% FBS, 5.12 µM | 79.5 | 77.9 | 91.9
RPMI 5 mM glucose + 10% FBS, 15.4 µM | 83.2 | 95.5 | 15.4
RPMI 5 mM glucose + 10% FBS, 46.1 µM | 76.4 | 89.1 | 59.3
RPMI 5 mM glucose + 10% dialyzed FBS, 0.000781 µM | 85.3 | 85.8 | 102
RPMI 5 mM glucose + 10% dialyzed FBS, 0.00234 µM | 92.7 | 83.4 | 98.5
RPMI 5 mM glucose + 10% dialyzed FBS, 0.00702 µM | 93.5 | 85.4 | 79.3
RPMI 5 mM glucose + 10% dialyzed FBS, 0.0211 µM | 92.2 | 84.5 | 90.9
RPMI 5 mM glucose + 10% dialyzed FBS, 0.0632 µM | 87.7 | 86.1 | 106
RPMI 5 mM glucose + 10% dialyzed FBS, 0.19 µM | 90.3 | 89.1 | 87.9
RPMI 5 mM glucose + 10% dialyzed FBS, 0.569 µM | 73.1 | 83.6 | 90
RPMI 5 mM glucose + 10% dialyzed FBS, 1.71 µM | 73.3 | 84.1 | 87
RPMI 5 mM glucose + 10% dialyzed FBS, 5.12 µM | 92 | 77.9 | 85.3
RPMI 5 mM glucose + 10% dialyzed FBS, 15.4 µM | 81.2 | 83 | 13.4
RPMI 5 mM glucose + 10% dialyzed FBS, 46.1 µM | 71.4 | 81 | 98.2

AUC of viability dose-response curve
Conditions | NOMO1 [4] | P12-Ichikawa [5] | SEM cells [6]
HPLM + 10% dialyzed FBS | 367 | 422 | 407
RPMI 5 mM glucose + 10% FBS | 392 | 414 | 347
RPMI 5 mM glucose + 10% dialyzed FBS | 405 | 401 | 412

OC1=CC2=C(C(=O)\C=C(/O2)C3=CC=CC=C3)C(=C1O)O
cell viability [%]
Conditions | NOMO1 [1] | P12-Ichikawa [2] | SEM cells [3]
HPLM + 10% dialyzed FBS, 0.000781 µM | 93.6 | 114 | 105
HPLM + 10% dialyzed FBS, 0.00234 µM | 102 | 110 | 116
HPLM + 10% dialyzed FBS, 0.00702 µM | 117 | 120 | 106
HPLM + 10% dialyzed FBS, 0.0211 µM | 107 | 113 | 103
HPLM + 10% dialyzed FBS, 0.0632 µM | 111 | 113 | 111
HPLM + 10% dialyzed FBS, 0.19 µM | 106 | 106 | 109
HPLM + 10% dialyzed FBS, 0.569 µM | 108 | 111 | 104
HPLM + 10% dialyzed FBS, 1.71 µM | 92.2 | 109 | 93.3
HPLM + 10% dialyzed FBS, 5.12 µM | 72.6 | 64.9 | 77.5
HPLM + 10% dialyzed FBS, 15.4 µM | 82.8 | 9.59 | 25.6
HPLM + 10% dialyzed FBS, 46.1 µM | 83.1 | 10.4 | 23.8
RPMI 5 mM glucose + 10% FBS, 0.000781 µM | 118 | 117 | –
RPMI 5 mM glucose + 10% FBS, 0.00234 µM | 105 | 112 | –
RPMI 5 mM glucose + 10% FBS, 0.00702 µM | 105 | 104 | –
RPMI 5 mM glucose + 10% FBS, 0.0211 µM | 115 | 118 | –
RPMI 5 mM glucose + 10% FBS, 0.0632 µM | 96.8 | 120 | –
RPMI 5 mM glucose + 10% FBS, 0.19 µM | 111 | 111 | –
RPMI 5 mM glucose + 10% FBS, 0.569 µM | 103 | 117 | –
RPMI 5 mM glucose + 10% FBS, 1.71 µM | 111 | 116 | –
RPMI 5 mM glucose + 10% FBS, 5.12 µM | 84 | 114 | –
RPMI 5 mM glucose + 10% FBS, 15.4 µM | 52.4 | 13.3 | –
RPMI 5 mM glucose + 10% FBS, 46.1 µM | 57.4 | 12 | –
RPMI 5 mM glucose + 10% dialyzed FBS, 0.000781 µM | 113 | 113 | 108
RPMI 5 mM glucose + 10% dialyzed FBS, 0.00234 µM | 108 | 117 | 94.4
RPMI 5 mM glucose + 10% dialyzed FBS, 0.00702 µM | 110 | 120 | 102
RPMI 5 mM glucose + 10% dialyzed FBS, 0.0211 µM | 107 | 112 | 94.5
RPMI 5 mM glucose + 10% dialyzed FBS, 0.0632 µM | 102 | 111 | 104
RPMI 5 mM glucose + 10% dialyzed FBS, 0.19 µM | 112 | 110 | 99.5
RPMI 5 mM glucose + 10% dialyzed FBS, 0.569 µM | 106 | 112 | 106
RPMI 5 mM glucose + 10% dialyzed FBS, 1.71 µM | 98.6 | 118 | 102
RPMI 5 mM glucose + 10% dialyzed FBS, 5.12 µM | 96 | 108 | 69.5
RPMI 5 mM glucose + 10% dialyzed FBS, 15.4 µM | 55.2 | 23.7 | 16.7
RPMI 5 mM glucose + 10% dialyzed FBS, 46.1 µM | 64.9 | 23.2 | 14.6

AUC of viability dose-response curve
Conditions | NOMO1 [4] | P12-Ichikawa [5] | SEM cells [6]
HPLM + 10% dialyzed FBS | 441 | 391 | 407
RPMI 5 mM glucose + 10% FBS | 431 | 413 | 379
RPMI 5 mM glucose + 10% dialyzed FBS | 441 | 418 | 402
